According to ChEMBL document CHEMBL3991601, “The target landscape of clinical kinase drugs” (Science, 2017):
Calls of active or inactive are those of the source.

Target: T1, Serine/threonine-protein kinase STK11 (Homo sapiens, UniProt Q15831)
T1 sequence (Q15831 whole entry): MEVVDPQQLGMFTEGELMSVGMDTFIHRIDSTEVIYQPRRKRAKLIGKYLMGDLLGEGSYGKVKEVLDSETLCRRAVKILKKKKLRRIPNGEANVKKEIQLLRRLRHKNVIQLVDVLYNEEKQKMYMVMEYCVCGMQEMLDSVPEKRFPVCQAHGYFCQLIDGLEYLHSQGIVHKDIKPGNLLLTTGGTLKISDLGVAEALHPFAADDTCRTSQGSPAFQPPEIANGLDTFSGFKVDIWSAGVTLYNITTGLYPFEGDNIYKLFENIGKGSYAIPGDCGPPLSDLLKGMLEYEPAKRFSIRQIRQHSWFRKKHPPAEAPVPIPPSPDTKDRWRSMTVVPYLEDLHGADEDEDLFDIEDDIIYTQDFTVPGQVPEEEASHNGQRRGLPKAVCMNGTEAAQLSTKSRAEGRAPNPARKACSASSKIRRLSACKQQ
Also: in the data inactive means no Kd found up to 30 µM.

Compound | Kd
CCCS(=O)(=O)Nc1ccc(F)c(C(=O)c2c[nH]c3ncc(-c4ccc(Cl)cc4)cc23)c1F [VEMURAFENIB] | > 30 µM (inactive)
CC[C@@H]1C(=O)N(C)c2cnc(Nc3ccc(C(=O)N[C@H]4CC[C@H](N5CCN(CC6CC6)CC5)CC4)cc3OC)nc2N1C(C)C [VOLASERTIB] | > 30 µM (inactive)
O=C(Nc1ccc(-c2ccnc(Nc3ccc(N4CCOCC4)cc3)n2)cc1)C1CCCN1 (stereo not given) [XL-019] | > 30 µM (inactive)

Target: Protein kinase C alpha type (Homo sapiens, UniProt P17252)

Compound | Kd
CCCS(=O)(=O)Nc1ccc(F)c(C(=O)c2c[nH]c3ncc(-c4ccc(Cl)cc4)cc23)c1F [VEMURAFENIB] | > 30 µM (inactive)
CC[C@@H]1C(=O)N(C)c2cnc(Nc3ccc(C(=O)N[C@H]4CC[C@H](N5CCN(CC6CC6)CC5)CC4)cc3OC)nc2N1C(C)C [VOLASERTIB] | > 30 µM (inactive)
O=C(Nc1ccc(-c2ccnc(Nc3ccc(N4CCOCC4)cc3)n2)cc1)C1CCCN1 (stereo not given) [XL-019] | > 30 µM (inactive)

Target: Mitogen-activated protein kinase kinase kinase 4 (Homo sapiens, UniProt Q9Y6R4)
Sequence (Q9Y6R4 whole entry): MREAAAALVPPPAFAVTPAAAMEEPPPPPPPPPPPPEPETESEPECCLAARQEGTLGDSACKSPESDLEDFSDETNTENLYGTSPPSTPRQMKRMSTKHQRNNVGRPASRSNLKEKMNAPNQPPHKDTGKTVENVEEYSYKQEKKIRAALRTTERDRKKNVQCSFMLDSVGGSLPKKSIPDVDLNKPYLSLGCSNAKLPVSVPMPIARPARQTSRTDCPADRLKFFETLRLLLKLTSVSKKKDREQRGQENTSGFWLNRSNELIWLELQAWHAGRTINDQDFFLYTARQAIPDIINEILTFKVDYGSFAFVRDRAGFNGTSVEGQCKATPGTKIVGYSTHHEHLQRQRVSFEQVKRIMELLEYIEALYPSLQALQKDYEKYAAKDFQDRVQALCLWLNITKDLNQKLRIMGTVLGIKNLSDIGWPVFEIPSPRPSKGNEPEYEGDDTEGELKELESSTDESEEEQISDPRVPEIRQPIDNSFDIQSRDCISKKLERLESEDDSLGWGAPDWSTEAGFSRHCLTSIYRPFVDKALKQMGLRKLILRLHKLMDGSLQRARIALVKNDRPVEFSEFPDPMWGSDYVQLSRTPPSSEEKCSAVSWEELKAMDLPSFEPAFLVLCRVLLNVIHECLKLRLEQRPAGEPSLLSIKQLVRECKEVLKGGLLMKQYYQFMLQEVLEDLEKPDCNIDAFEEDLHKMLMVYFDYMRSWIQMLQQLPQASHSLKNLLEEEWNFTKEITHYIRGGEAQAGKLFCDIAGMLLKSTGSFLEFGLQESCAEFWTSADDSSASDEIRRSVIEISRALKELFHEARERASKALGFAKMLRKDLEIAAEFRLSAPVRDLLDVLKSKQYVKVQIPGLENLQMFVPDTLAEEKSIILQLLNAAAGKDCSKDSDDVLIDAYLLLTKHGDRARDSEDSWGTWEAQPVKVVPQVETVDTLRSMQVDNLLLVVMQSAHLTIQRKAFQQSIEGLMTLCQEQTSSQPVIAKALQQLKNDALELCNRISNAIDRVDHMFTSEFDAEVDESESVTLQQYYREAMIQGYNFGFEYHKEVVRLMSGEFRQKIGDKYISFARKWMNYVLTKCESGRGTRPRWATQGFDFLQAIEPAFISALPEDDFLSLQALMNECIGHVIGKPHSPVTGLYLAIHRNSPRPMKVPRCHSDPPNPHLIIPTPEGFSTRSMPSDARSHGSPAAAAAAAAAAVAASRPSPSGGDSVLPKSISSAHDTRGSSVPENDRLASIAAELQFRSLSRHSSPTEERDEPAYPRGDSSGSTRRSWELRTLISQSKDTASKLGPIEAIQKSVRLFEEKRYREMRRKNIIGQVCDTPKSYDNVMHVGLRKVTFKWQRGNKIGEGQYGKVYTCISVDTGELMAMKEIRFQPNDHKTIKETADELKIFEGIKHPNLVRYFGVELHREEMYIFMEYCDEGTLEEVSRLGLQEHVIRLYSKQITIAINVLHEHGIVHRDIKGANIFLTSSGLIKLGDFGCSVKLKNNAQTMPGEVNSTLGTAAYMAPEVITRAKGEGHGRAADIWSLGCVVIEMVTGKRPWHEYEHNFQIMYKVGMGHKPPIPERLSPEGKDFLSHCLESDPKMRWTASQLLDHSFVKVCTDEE

Compound | Kd
CCCS(=O)(=O)Nc1ccc(F)c(C(=O)c2c[nH]c3ncc(-c4ccc(Cl)cc4)cc23)c1F [VEMURAFENIB] | > 30 µM (inactive)
CC[C@@H]1C(=O)N(C)c2cnc(Nc3ccc(C(=O)N[C@H]4CC[C@H](N5CCN(CC6CC6)CC5)CC4)cc3OC)nc2N1C(C)C [VOLASERTIB] | > 30 µM (inactive)
O=C(Nc1ccc(-c2ccnc(Nc3ccc(N4CCOCC4)cc3)n2)cc1)C1CCCN1 (stereo not given) [XL-019] | > 30 µM (inactive)

Target: Chromodomain-helicase-DNA-binding protein 4 (Homo sapiens, UniProt Q14839)

Compound | Kd
CCCS(=O)(=O)Nc1ccc(F)c(C(=O)c2c[nH]c3ncc(-c4ccc(Cl)cc4)cc23)c1F [VEMURAFENIB] | > 30 µM (inactive)
CC[C@@H]1C(=O)N(C)c2cnc(Nc3ccc(C(=O)N[C@H]4CC[C@H](N5CCN(CC6CC6)CC5)CC4)cc3OC)nc2N1C(C)C [VOLASERTIB] | > 30 µM (inactive)
O=C(Nc1ccc(-c2ccnc(Nc3ccc(N4CCOCC4)cc3)n2)cc1)C1CCCN1 (stereo not given) [XL-019] | > 30 µM (inactive)

Target: T2, Electron transfer flavoprotein subunit beta (Homo sapiens, UniProt P38117)
T2 sequence (P38117 whole entry): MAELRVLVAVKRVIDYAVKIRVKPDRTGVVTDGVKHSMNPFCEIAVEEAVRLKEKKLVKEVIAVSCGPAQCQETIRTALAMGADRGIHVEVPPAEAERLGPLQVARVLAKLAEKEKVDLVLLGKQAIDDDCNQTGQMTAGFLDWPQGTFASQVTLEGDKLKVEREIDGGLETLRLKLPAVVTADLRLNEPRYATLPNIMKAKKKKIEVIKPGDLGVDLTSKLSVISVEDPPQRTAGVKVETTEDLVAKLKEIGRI

Compound | Kd
CCCS(=O)(=O)Nc1ccc(F)c(C(=O)c2c[nH]c3ncc(-c4ccc(Cl)cc4)cc23)c1F [VEMURAFENIB] | > 30 µM (inactive)
CC[C@@H]1C(=O)N(C)c2cnc(Nc3ccc(C(=O)N[C@H]4CC[C@H](N5CCN(CC6CC6)CC5)CC4)cc3OC)nc2N1C(C)C [VOLASERTIB] | > 30 µM (inactive)
O=C(Nc1ccc(-c2ccnc(Nc3ccc(N4CCOCC4)cc3)n2)cc1)C1CCCN1 (stereo not given) [XL-019] | > 30 µM (inactive)

Target: Inosine-5'-monophosphate dehydrogenase 2 (Homo sapiens, UniProt P12268)

Compound | Kd
CCCS(=O)(=O)Nc1ccc(F)c(C(=O)c2c[nH]c3ncc(-c4ccc(Cl)cc4)cc23)c1F [VEMURAFENIB] | > 30 µM (inactive)
CC[C@@H]1C(=O)N(C)c2cnc(Nc3ccc(C(=O)N[C@H]4CC[C@H](N5CCN(CC6CC6)CC5)CC4)cc3OC)nc2N1C(C)C [VOLASERTIB] | > 30 µM (inactive)
O=C(Nc1ccc(-c2ccnc(Nc3ccc(N4CCOCC4)cc3)n2)cc1)C1CCCN1 (stereo not given) [XL-019] | > 30 µM (inactive)

Target: T3, Tyrosine--tRNA ligase, cytoplasmic (Homo sapiens, UniProt P54577)
T3 sequence (P54577 whole entry): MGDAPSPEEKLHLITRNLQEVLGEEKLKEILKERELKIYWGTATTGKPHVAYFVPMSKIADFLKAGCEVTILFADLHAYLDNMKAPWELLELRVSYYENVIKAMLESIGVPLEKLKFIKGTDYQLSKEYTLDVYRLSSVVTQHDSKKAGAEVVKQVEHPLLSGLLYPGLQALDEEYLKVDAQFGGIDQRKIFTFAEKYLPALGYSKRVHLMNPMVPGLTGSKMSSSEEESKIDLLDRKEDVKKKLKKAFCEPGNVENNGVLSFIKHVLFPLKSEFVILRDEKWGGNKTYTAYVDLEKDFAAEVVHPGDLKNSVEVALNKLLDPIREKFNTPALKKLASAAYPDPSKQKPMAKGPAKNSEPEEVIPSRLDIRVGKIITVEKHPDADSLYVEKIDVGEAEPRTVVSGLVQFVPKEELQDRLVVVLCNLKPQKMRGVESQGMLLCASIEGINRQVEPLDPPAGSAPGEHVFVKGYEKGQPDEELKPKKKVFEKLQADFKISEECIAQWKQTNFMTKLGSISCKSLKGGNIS

Compound | Kd
CCCS(=O)(=O)Nc1ccc(F)c(C(=O)c2c[nH]c3ncc(-c4ccc(Cl)cc4)cc23)c1F [VEMURAFENIB] | > 30 µM (inactive)
CC[C@@H]1C(=O)N(C)c2cnc(Nc3ccc(C(=O)N[C@H]4CC[C@H](N5CCN(CC6CC6)CC5)CC4)cc3OC)nc2N1C(C)C [VOLASERTIB] | > 30 µM (inactive)
O=C(Nc1ccc(-c2ccnc(Nc3ccc(N4CCOCC4)cc3)n2)cc1)C1CCCN1 (stereo not given) [XL-019] | > 30 µM (inactive)

Target: 26S proteasome regulatory subunit 6B (Homo sapiens, UniProt P43686)
Sequence (P43686 whole entry): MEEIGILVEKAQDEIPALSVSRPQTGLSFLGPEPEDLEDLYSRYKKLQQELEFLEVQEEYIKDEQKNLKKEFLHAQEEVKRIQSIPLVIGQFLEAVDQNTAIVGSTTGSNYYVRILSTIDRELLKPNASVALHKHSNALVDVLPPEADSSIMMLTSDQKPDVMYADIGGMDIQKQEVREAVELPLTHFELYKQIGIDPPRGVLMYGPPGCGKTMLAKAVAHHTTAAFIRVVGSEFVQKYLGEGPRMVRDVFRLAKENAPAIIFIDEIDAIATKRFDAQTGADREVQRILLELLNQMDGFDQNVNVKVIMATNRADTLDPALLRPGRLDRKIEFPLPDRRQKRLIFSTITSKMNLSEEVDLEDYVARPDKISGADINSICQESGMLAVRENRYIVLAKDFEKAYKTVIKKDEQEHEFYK

Compound | Kd
CCCS(=O)(=O)Nc1ccc(F)c(C(=O)c2c[nH]c3ncc(-c4ccc(Cl)cc4)cc23)c1F [VEMURAFENIB] | > 30 µM (inactive)
CC[C@@H]1C(=O)N(C)c2cnc(Nc3ccc(C(=O)N[C@H]4CC[C@H](N5CCN(CC6CC6)CC5)CC4)cc3OC)nc2N1C(C)C [VOLASERTIB] | > 30 µM (inactive)
O=C(Nc1ccc(-c2ccnc(Nc3ccc(N4CCOCC4)cc3)n2)cc1)C1CCCN1 (stereo not given) [XL-019] | > 30 µM (inactive)

Target: T4, Phenylalanine--tRNA ligase beta subunit (Homo sapiens, UniProt Q9NSD9)
T4 sequence (Q9NSD9 whole entry): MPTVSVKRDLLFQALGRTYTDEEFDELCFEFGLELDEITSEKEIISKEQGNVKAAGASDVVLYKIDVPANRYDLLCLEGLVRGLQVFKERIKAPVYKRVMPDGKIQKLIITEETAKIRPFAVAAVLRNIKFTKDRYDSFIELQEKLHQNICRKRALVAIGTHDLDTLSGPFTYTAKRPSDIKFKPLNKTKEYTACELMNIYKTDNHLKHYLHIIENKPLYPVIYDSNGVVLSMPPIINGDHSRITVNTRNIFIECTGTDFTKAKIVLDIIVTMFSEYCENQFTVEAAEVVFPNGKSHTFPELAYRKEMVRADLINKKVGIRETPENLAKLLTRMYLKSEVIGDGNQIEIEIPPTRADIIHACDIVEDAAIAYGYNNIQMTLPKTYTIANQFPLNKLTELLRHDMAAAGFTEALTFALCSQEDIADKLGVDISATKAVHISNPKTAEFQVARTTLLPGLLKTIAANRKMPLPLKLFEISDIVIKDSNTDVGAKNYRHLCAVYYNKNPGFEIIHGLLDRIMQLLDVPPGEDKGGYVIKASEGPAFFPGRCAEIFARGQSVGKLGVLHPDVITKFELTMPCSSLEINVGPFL

Compound | Kd
CCCS(=O)(=O)Nc1ccc(F)c(C(=O)c2c[nH]c3ncc(-c4ccc(Cl)cc4)cc23)c1F [VEMURAFENIB] | > 30 µM (inactive)
CC[C@@H]1C(=O)N(C)c2cnc(Nc3ccc(C(=O)N[C@H]4CC[C@H](N5CCN(CC6CC6)CC5)CC4)cc3OC)nc2N1C(C)C [VOLASERTIB] | > 30 µM (inactive)
O=C(Nc1ccc(-c2ccnc(Nc3ccc(N4CCOCC4)cc3)n2)cc1)C1CCCN1 (stereo not given) [XL-019] | > 30 µM (inactive)

Target: Ephrin type-A receptor 2 (Homo sapiens, UniProt P29317)
Sequence (P29317 whole entry): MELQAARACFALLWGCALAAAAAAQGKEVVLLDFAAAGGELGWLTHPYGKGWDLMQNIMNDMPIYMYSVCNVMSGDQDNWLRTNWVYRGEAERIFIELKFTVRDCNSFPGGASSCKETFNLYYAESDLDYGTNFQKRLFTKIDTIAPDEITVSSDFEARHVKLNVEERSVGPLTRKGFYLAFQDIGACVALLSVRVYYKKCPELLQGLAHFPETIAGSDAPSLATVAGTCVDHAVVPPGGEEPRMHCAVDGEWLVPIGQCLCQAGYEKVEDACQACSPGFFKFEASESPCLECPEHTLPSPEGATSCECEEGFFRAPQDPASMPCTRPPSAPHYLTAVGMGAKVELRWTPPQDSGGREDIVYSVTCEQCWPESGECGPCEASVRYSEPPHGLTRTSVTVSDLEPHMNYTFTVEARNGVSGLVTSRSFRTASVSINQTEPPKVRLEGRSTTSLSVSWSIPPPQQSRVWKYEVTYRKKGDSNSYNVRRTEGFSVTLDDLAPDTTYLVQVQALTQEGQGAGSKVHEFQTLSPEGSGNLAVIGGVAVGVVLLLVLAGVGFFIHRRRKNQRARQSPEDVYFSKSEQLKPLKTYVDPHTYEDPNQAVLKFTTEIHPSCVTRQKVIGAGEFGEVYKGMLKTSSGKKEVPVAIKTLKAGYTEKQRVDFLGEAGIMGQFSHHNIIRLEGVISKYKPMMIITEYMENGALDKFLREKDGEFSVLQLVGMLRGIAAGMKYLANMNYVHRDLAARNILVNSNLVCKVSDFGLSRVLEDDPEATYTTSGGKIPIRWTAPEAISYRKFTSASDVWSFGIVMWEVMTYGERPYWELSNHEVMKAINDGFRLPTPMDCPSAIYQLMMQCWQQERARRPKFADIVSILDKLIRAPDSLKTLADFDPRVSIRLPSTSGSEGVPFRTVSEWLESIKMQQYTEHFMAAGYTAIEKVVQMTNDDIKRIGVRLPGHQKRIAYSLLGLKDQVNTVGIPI

Compound | Kd
CCCS(=O)(=O)Nc1ccc(F)c(C(=O)c2c[nH]c3ncc(-c4ccc(Cl)cc4)cc23)c1F [VEMURAFENIB] | > 30 µM (inactive)
CC[C@@H]1C(=O)N(C)c2cnc(Nc3ccc(C(=O)N[C@H]4CC[C@H](N5CCN(CC6CC6)CC5)CC4)cc3OC)nc2N1C(C)C [VOLASERTIB] | > 30 µM (inactive)
O=C(Nc1ccc(-c2ccnc(Nc3ccc(N4CCOCC4)cc3)n2)cc1)C1CCCN1 (stereo not given) [XL-019] | > 30 µM (inactive)

Target: Adenosine kinase (Homo sapiens, UniProt P55263)
Sequence (P55263 whole entry): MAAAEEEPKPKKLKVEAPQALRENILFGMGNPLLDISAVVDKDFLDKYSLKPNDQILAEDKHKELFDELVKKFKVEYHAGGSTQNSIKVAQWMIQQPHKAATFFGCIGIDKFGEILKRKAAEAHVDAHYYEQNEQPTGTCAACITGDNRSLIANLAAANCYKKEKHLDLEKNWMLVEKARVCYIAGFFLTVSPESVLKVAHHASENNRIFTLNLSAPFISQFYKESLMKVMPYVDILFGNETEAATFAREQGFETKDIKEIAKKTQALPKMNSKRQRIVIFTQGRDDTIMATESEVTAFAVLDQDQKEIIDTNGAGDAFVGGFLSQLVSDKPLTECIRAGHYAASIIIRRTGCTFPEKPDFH

Compound | Kd
CCCS(=O)(=O)Nc1ccc(F)c(C(=O)c2c[nH]c3ncc(-c4ccc(Cl)cc4)cc23)c1F [VEMURAFENIB] | > 30 µM (inactive)
CC[C@@H]1C(=O)N(C)c2cnc(Nc3ccc(C(=O)N[C@H]4CC[C@H](N5CCN(CC6CC6)CC5)CC4)cc3OC)nc2N1C(C)C [VOLASERTIB] | > 30 µM (inactive)
O=C(Nc1ccc(-c2ccnc(Nc3ccc(N4CCOCC4)cc3)n2)cc1)C1CCCN1 (stereo not given) [XL-019] | > 30 µM (inactive)

Target: Wee1-like protein kinase (Homo sapiens, UniProt P30291)
Sequence (P30291 whole entry): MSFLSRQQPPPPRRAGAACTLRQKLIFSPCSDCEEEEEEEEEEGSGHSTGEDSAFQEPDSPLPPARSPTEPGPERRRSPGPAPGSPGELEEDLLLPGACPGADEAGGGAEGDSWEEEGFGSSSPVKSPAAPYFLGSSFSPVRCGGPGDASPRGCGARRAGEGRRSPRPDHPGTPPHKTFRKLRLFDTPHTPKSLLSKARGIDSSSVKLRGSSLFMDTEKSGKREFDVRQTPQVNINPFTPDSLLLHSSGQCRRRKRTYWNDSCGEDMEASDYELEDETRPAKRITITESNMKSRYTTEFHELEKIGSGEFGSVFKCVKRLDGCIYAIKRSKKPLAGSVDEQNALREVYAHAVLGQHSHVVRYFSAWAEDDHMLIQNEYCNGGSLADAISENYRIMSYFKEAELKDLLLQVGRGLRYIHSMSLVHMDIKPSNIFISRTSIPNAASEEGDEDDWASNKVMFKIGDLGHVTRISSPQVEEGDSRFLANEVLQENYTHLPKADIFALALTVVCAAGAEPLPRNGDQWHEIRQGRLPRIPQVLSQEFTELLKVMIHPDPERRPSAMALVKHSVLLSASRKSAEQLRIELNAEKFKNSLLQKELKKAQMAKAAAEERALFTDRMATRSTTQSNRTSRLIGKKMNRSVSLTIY

Compound | Kd
CCCS(=O)(=O)Nc1ccc(F)c(C(=O)c2c[nH]c3ncc(-c4ccc(Cl)cc4)cc23)c1F [VEMURAFENIB] | > 30 µM (inactive)
CC[C@@H]1C(=O)N(C)c2cnc(Nc3ccc(C(=O)N[C@H]4CC[C@H](N5CCN(CC6CC6)CC5)CC4)cc3OC)nc2N1C(C)C [VOLASERTIB] | > 30 µM (inactive)
O=C(Nc1ccc(-c2ccnc(Nc3ccc(N4CCOCC4)cc3)n2)cc1)C1CCCN1 (stereo not given) [XL-019] | > 30 µM (inactive)

Target: Interleukin-1 receptor-associated kinase 1 (Homo sapiens, UniProt P51617)

Compound | Kd
CCCS(=O)(=O)Nc1ccc(F)c(C(=O)c2c[nH]c3ncc(-c4ccc(Cl)cc4)cc23)c1F [VEMURAFENIB] | > 30 µM (inactive)
CC[C@@H]1C(=O)N(C)c2cnc(Nc3ccc(C(=O)N[C@H]4CC[C@H](N5CCN(CC6CC6)CC5)CC4)cc3OC)nc2N1C(C)C [VOLASERTIB] | > 30 µM (inactive)
O=C(Nc1ccc(-c2ccnc(Nc3ccc(N4CCOCC4)cc3)n2)cc1)C1CCCN1 (stereo not given) [XL-019] | > 30 µM (inactive)

Target: Putative heat shock protein HSP 90-beta 2 (Homo sapiens, UniProt Q58FF8)
Sequence (Q58FF8 whole entry): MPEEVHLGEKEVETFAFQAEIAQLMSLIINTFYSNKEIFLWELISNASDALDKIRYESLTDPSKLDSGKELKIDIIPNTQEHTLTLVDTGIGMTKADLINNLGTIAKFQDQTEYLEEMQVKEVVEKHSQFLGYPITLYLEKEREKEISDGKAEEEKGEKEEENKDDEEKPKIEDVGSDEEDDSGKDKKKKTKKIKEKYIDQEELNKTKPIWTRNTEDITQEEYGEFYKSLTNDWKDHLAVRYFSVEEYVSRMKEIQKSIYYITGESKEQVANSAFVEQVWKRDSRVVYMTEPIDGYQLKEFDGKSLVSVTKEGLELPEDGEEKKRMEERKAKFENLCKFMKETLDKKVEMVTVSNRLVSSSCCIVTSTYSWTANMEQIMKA

Compound | Kd
CCCS(=O)(=O)Nc1ccc(F)c(C(=O)c2c[nH]c3ncc(-c4ccc(Cl)cc4)cc23)c1F [VEMURAFENIB] | > 30 µM (inactive)
CC[C@@H]1C(=O)N(C)c2cnc(Nc3ccc(C(=O)N[C@H]4CC[C@H](N5CCN(CC6CC6)CC5)CC4)cc3OC)nc2N1C(C)C [VOLASERTIB] | > 30 µM (inactive)
O=C(Nc1ccc(-c2ccnc(Nc3ccc(N4CCOCC4)cc3)n2)cc1)C1CCCN1 (stereo not given) [XL-019] | > 30 µM (inactive)

Target: Myosin-14 (Homo sapiens, UniProt Q7Z406)

Compound | Kd
CCCS(=O)(=O)Nc1ccc(F)c(C(=O)c2c[nH]c3ncc(-c4ccc(Cl)cc4)cc23)c1F [VEMURAFENIB] | > 30 µM (inactive)
CC[C@@H]1C(=O)N(C)c2cnc(Nc3ccc(C(=O)N[C@H]4CC[C@H](N5CCN(CC6CC6)CC5)CC4)cc3OC)nc2N1C(C)C [VOLASERTIB] | > 30 µM (inactive)
O=C(Nc1ccc(-c2ccnc(Nc3ccc(N4CCOCC4)cc3)n2)cc1)C1CCCN1 (stereo not given) [XL-019] | > 30 µM (inactive)
